Source: article PMC4639830, “Inhibition of DYRK1A and GSK3B induces human β-cell proliferation” (Nature Communications, 2015)

Experiments:
[1] = target: T1, AKT3 (Homo sapiens, UniProt Q9Y243); experiment: Kinase profiling; type: biochemical; details: Conc 1000 nM; read-out: Percent inhibition, AKT3
T1 construct: purchased Ambit KINOMEscan
Excerpt: (§1) ; Fig. 5a; Supplementary Table 1). We focused on Dyrk1a because other kinases inhibited by aminopyrazine compounds were not highly expressed in β-cells and because Dyrk1a was known to inhibit the NFAT pathway that was previously implicated in β-cell proliferation. We used molecular modelling to dock the aminopyrazine compounds into the published structure of Dyrk1a (protein databank accession code 2vx3.pdb; Fig. 5b).

[2] = target: T2, EphA3 (Homo sapiens, UniProt P29320); experiment: Kinase profiling; type: biochemical; details: Conc 1000 nM; read-out: Percent inhibition, EphA3
T2 construct: purchased Ambit KINOMEscan
Excerpt: as §1

[3] = target: T3, InsR (Homo sapiens, UniProt P06213); experiment: Kinase profiling; type: biochemical; details: Conc 1000 nM; read-out: Percent inhibition, InsR
T3 construct: purchased Ambit KINOMEscan
Excerpt: as §1

[4] = target: T4, MET (Homo sapiens, UniProt P08581); experiment: Kinase profiling; type: biochemical; details: Conc 1000 nM; read-out: Percent inhibition, MET
T4 construct: purchased Ambit (KINOMEscan)
Excerpt: as §1

[5] = target: T5, FGFR3 (Homo sapiens, UniProt P22607); experiment: Kinase profiling; type: biochemical; details: Conc 1000 nM; read-out: Percent inhibition, FGFR3
T5 construct: purchased Ambit KINOMEscan
Excerpt: as §1

[6] = target: T6, MEK1 (Homo sapiens, UniProt Q02750); experiment: Kinase profiling; type: biochemical; details: Conc 1000 nM; read-out: Percent inhibition, MEK1
T6 construct: purchased Ambit (KINOMEscan)
Excerpt: as §1

[7] = target: T7, LynA (Homo sapiens, UniProt P07948); experiment: Kinase profiling; type: biochemical; details: Conc 1000 nM; read-out: Percent inhibition, LynA
T7 construct: purchased Ambit (KINOMEscan)
Excerpt: as §1

[8] = target: T8, PLK1 (Homo sapiens, UniProt P53350); experiment: Kinase profiling; type: biochemical; details: Conc 1000 nM; read-out: Percent inhibition, PLK1
T8 construct: purchased Ambit (KINOMEscan)
Excerpt: as §1

[9] = target: T9, RET (Homo sapiens, UniProt P07949); experiment: Kinase profiling; type: biochemical; details: read-out: Percent inhibition, RET; for inhibition at 1 µM: Conc 1000 nM
T9 construct: purchased Ambit (KINOMEscan)
T9 sequence (P07949 29-1114): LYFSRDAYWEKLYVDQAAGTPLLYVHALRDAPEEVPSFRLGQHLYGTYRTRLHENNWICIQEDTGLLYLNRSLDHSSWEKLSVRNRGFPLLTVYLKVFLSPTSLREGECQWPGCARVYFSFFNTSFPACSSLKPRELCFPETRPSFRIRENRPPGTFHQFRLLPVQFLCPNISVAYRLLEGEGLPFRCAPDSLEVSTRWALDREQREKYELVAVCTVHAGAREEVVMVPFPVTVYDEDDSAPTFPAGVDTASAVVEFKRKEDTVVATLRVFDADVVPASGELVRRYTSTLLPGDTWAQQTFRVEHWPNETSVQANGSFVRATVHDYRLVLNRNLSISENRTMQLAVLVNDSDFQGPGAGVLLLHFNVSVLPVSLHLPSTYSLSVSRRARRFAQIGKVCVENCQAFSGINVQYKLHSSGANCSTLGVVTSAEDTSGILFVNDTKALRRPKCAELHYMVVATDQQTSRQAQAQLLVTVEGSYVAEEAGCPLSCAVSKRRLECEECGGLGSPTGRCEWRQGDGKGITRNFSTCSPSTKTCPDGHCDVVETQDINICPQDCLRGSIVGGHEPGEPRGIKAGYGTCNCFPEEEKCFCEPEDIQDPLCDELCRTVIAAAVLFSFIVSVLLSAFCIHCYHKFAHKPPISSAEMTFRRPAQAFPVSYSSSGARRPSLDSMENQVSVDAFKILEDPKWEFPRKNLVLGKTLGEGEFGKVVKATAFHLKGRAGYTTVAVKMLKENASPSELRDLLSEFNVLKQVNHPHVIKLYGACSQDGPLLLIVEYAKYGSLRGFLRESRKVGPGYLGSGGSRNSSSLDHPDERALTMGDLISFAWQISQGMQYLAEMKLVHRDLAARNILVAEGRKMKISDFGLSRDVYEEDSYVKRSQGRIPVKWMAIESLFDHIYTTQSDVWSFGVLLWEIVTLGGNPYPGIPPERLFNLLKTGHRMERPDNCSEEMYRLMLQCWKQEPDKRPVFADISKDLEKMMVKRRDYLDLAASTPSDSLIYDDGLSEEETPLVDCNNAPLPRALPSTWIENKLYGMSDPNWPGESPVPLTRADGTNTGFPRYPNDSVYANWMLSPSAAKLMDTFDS
Excerpt: as §1

[10] = target: T10, PDGFRa (Homo sapiens, UniProt P16234); experiment: Kinase profiling; type: biochemical; details: read-out: Percent inhibition, PDGFRa; for inhibition at 1 µM: Conc 1000 nM
T10 construct: purchased Ambit (KINOMEscan)
T10 sequence (P16234 24-1089): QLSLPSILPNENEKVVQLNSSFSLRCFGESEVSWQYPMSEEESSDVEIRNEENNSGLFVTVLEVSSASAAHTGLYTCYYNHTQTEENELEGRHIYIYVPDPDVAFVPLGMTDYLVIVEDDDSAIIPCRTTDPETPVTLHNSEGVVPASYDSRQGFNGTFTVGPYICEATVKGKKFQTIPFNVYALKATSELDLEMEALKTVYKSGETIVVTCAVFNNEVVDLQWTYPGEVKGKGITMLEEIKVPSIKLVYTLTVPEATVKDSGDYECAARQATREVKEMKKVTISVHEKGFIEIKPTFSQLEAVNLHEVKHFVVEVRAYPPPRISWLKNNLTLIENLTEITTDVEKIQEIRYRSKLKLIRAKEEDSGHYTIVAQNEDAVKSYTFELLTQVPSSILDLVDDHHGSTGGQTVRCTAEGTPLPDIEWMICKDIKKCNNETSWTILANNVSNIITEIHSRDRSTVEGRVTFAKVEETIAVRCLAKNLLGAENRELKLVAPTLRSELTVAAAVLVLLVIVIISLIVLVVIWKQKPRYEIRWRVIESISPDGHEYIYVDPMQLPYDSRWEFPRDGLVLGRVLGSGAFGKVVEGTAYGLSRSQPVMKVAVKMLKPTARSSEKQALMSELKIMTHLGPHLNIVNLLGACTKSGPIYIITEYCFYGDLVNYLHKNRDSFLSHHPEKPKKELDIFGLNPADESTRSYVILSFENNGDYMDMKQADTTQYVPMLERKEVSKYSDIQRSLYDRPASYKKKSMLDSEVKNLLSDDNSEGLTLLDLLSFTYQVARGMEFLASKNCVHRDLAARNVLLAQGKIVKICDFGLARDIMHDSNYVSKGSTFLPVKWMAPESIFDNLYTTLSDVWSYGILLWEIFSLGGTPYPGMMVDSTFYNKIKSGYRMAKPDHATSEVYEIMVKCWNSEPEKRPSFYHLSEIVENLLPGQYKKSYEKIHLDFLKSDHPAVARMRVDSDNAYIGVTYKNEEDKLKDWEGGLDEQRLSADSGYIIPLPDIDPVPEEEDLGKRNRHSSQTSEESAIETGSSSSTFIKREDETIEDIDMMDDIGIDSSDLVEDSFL
Excerpt: as §1

[11] = target: T11, TTK (Homo sapiens, UniProt P33981); experiment: Kinase profiling; type: biochemical; details: Conc 1000 nM; read-out: Percent inhibition, TTK
T11 construct: purchased Ambit (KINOMEscan)
Excerpt: as §1

[12] = target: T12, IGF1R (Homo sapiens, UniProt P08069); experiment: Kinase profiling; type: biochemical; details: Conc 1000 nM; read-out: Percent inhibition, IGF1R
T12 construct: purchased Ambit KINOMEscan
Excerpt: as §1

[13] = target: T13, PKCalpha (Homo sapiens, UniProt P17252); experiment: Kinase profiling; type: biochemical; details: read-out: Percent inhibition, PKCalpha; for inhibition at 1 µM: Conc 1000 nM
T13 construct: purchased Ambit (KINOMEscan)
Excerpt: as §1

[14] = target: T14, p70S6K1 (Homo sapiens, UniProt P23443); experiment: Kinase profiling; type: biochemical; details: Conc 1000 nM; read-out: Percent inhibition, p70S6K1
T14 construct: purchased Ambit (KINOMEscan)
Excerpt: as §1

[15] = target: T15, EphB3 (Homo sapiens, UniProt P54753); experiment: Kinase profiling; type: biochemical; details: Conc 1000 nM; read-out: Percent inhibition, EphB3
T15 construct: purchased Ambit KINOMEscan
Excerpt: as §1

[16] = target: T16, ROS (Homo sapiens, UniProt P08922); experiment: Kinase profiling; type: biochemical; details: read-out: Percent inhibition, ROS; for inhibition at 1 µM: Conc 1000 nM
T16 construct: purchased Ambit (KINOMEscan)
T16 sequence (P08922 28-2347): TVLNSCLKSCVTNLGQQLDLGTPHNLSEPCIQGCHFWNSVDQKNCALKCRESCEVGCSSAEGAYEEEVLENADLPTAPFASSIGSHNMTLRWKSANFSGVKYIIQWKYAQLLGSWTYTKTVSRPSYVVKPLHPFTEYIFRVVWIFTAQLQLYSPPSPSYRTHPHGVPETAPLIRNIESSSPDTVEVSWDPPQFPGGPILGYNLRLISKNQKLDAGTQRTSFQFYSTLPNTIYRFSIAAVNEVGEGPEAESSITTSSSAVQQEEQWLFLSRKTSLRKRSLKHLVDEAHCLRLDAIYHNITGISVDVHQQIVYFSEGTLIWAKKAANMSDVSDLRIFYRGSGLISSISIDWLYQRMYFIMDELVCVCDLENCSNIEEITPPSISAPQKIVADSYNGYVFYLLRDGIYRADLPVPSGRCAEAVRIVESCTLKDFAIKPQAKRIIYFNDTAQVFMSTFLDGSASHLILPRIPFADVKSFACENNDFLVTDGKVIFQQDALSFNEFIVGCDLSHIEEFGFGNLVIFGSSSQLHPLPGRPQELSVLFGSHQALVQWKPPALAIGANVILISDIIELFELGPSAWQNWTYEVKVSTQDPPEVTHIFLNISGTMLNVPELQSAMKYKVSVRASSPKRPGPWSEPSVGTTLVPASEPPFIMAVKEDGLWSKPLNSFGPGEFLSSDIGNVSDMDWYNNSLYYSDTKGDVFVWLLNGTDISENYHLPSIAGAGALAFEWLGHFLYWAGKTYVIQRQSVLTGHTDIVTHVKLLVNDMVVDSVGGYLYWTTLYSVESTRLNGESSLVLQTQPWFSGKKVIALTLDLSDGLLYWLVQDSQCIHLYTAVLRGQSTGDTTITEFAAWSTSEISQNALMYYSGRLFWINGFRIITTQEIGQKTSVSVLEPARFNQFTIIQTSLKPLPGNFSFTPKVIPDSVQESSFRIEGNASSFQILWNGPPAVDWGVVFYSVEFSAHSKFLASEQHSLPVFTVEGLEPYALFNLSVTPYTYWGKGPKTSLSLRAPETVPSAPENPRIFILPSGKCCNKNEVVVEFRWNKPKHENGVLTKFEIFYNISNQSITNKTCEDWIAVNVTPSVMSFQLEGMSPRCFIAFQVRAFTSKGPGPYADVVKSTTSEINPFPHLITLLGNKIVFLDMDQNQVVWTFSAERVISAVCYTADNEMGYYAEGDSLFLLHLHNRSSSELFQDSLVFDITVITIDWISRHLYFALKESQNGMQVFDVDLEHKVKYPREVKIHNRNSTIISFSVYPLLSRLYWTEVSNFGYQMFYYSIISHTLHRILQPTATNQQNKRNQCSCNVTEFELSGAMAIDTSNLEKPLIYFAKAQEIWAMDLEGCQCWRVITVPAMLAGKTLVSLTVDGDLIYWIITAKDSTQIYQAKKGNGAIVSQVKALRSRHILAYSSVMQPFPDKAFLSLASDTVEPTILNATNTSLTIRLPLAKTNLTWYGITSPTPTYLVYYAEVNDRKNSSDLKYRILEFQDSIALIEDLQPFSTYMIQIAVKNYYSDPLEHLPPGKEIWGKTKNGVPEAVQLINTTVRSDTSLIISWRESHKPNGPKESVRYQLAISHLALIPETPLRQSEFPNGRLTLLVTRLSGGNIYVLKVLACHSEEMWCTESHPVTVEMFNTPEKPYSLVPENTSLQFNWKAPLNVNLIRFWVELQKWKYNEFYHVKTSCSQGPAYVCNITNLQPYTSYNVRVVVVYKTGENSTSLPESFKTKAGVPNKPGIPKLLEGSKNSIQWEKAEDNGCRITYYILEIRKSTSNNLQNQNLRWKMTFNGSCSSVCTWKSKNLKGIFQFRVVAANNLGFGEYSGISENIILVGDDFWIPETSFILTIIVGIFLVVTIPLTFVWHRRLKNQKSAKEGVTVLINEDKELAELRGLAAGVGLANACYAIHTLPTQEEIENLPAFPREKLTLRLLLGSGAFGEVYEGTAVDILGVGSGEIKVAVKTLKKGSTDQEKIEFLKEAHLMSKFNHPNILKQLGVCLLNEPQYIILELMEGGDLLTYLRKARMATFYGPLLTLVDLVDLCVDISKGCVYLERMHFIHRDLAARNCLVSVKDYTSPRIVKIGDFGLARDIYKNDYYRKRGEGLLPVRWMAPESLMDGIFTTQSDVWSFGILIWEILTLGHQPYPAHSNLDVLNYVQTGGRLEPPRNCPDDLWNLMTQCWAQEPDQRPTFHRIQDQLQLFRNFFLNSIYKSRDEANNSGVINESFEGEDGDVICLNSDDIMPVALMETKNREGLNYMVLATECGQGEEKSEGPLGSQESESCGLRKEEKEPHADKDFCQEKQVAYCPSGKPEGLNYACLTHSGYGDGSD
Excerpt: as §1

[17] = target: T17, LCK (Homo sapiens, UniProt P06239); experiment: Kinase profiling; type: biochemical; details: Conc 1000 nM; read-out: Percent inhibition, LCK
T17 construct: purchased Ambit (KINOMEscan)
Excerpt: as §1

[18] = target: T18, EGFR (Homo sapiens, UniProt P00533); experiment: Kinase profiling; type: biochemical; details: Conc 1000 nM; read-out: Percent inhibition, EGFR
T18 construct: purchased Ambit KINOMEscan
Excerpt: as §1

[19] = target: T19, CDK2/cyclinA (Homo sapiens, UniProt P24941); experiment: Kinase profiling; type: biochemical; details: read-out: Percent inhibition, CDK2/cyclinA; for inhibition at 1 µM: Conc 1000 nM
T19 construct: purchased Ambit KINOMEscan
Excerpt: as §1

[20] = target: T20, ErbB4 (HER4) (Homo sapiens, UniProt Q15303); experiment: Kinase profiling; type: biochemical; details: Conc 1000 nM; read-out: Percent inhibition, ErbB4 (HER4)
T20 construct: purchased Ambit KINOMEscan
Excerpt: as §1

[21] = tested on: Wnt-driven luciferase reporter in TM3 cells; experiment: Wnt-driven luciferase reporter gene (Super Top Flash); type: cell-based
Excerpt: Supplementary Figure 8. Selective Dyrk1a inhibition is sufficient to induce β-cell proliferation.
Top Flash) in TM3 cells (mean ± SD; n=3). (b) GNF6324-treated primary rat islets were
immunostained for nuclear localization of β-catenin in EdU and insulin co-positive cells. Co-
vehicle control cells. Scale bar = 20 µm. (c-e) Selective Dyrk1a inhibitors stimulate EdU
Beta-catenin/Insulin/DAPI
% E d U (+ ) b e ta c e lls
% E d U (+ ) in s u lin (+ ) c e lls […]
% E d U ( + ) in s u lin (+ ) c e lls C o n tro l
(1 picture or pasted object on this page, not shown here)

[22] = tested on: human islets; experiment: Human islets treated 7 days: DNA, ATP, IEQ, insulin content, GSIS; type: cell-based; details: for DNA and ATP content and islet equivalent units (IEQ) compared with vehicle / insulin secretory capacity (GSIS): 6.7 μM GNF7156 or 2 μM GNF4877
Protocol: Human islets were evaluated for glucose stimulated insulin secretion using standard methods. Secreted insulin was monitored using an ELISA (Meso-scale Devices) and normalized to total DNA (PicoGreen, Invitrogen).
Rat or human β-cell proliferation assays were performed using dissociated primary rat or human islets. Islets were treated with the indicated compounds in the presence of EdU for 4 days before fixing and staining. EdU incorporation was measured by click reaction with AlexaFluor-647-azide (Invitrogen). For intact islet assays, primary human islets were treated for 7 or 8 days (as indicated in the legend). Rat dissociated islets were cultured in RPMI medium containing 10% FBS and human dissociated islets were cultured in PIM-S media (Prodo laboratories) with 10% human […].

[23] = tested on: FAK2 (PTK2); experiment: Kinase profiling; type: biochemical, human
Excerpt: as §1

[24] = tested on: NFATc1-GFP localization in Ins1 cells; experiment: NFATc1-GFP nuclear localization; type: cell-based; details: low glucose
Excerpt: Figure 6 AP compounds induce β-cell proliferation through activation of the calcineurin–NFAT pathway. (a) AP compounds stimulate NFATc1-GFP nuclear localization. […] Scale bar, 50 μm. […] Scale bar, 50 μm.

| SMILES | inhibition at 1 µM [1] | inhibition at 1 µM [2] | inhibition at 1 µM [3] | inhibition at 1 µM [4] | inhibition at 1 µM [5] | inhibition at 1 µM [6] | inhibition at 1 µM [7] | inhibition at 1 µM [8] | inhibition at 1 µM [9] | inhibition at 1 µM [10] | inhibition at 1 µM [11] | inhibition at 1 µM [12] | inhibition at 1 µM [13] | inhibition at 1 µM [14] | inhibition at 1 µM [15] | inhibition at 1 µM [16] | inhibition at 1 µM [17] | inhibition at 1 µM [18] | inhibition at 1 µM [19] | inhibition at 1 µM [20] | also measured |
| --- | --- | --- | --- | --- | --- | --- | --- | --- | --- | --- | --- | --- | --- | --- | --- | --- | --- | --- | --- | --- | --- |
| CC(C)Oc1ccc(F)c(-c2cnc(N)c(C(=O)Nc3cnccc3N3CCC[C@@H](C(=O)O)C3)n2)c1 [GNF4877] | 25% | 63% | 51% | 63% | 32% | 17% | 54% | 22% | 96% | 88% | 51% | 49% | 97% | 75% | 28% | 97% | 43% | 44% | 95% | 54% | inhibition at 0.2 µM ([9]; Conc 200 nM): 26%; inhibition at 0.2 µM ([10]; Conc 200 nM): 0%; inhibition at 0.2 µM ([13]; Conc 200 nM): 0%; inhibition at 0.2 µM ([16]; Conc 200 nM): 71%; inhibition at 0.2 µM ([19]; Conc 200 nM): 67%; induction of Wnt-driven luciferase reporter gene [21]: induce a Wnt-driven luciferase reporter gene; DNA and ATP content and islet equivalent units (IEQ) compared with vehicle [22]: increases in DNA and ATP content and an increase in islet equivalent units; insulin secretory capacity (GSIS) [22]: maintained insulin secretory capacity; Percent inhibition, FAK2 (PTK2) ([23]; Conc 200 nM): 9%; Percent inhibition, FAK2 (PTK2) ([23]; Conc 1000 nM): 70%; NFATc1-GFP nuclear localization [24]: caused marked nuclear localization of NFATc1-GFP |
| Nc1ncc(-c2ccccc2)nc1C(=O)Nc1cnccc1N1CCC(C(=O)O)CC1 [GNF7156] | 7% | 82% | 24% | 47% | 60% | 50% | 56% | 85% | 98% | 78% | 29% | 19% | 96% | 50% | 12% | 96% | 31% | 71% | 90% | 36% | induction of Wnt-driven luciferase reporter gene [21]: induce a Wnt-driven luciferase reporter gene; insulin content of treated human islets ([22]; 6.7 μM GNF7156): slightly reduced insulin content; DNA and ATP content and islet equivalent units (IEQ) compared with vehicle [22]: increases in DNA and ATP content and an increase in islet equivalent units; insulin secretory capacity (GSIS) [22]: maintained insulin secretory capacity; Percent inhibition, FAK2 (PTK2) ([23]; Conc 1000 nM): 92%; NFATc1-GFP nuclear localization [24]: caused marked nuclear localization of NFATc1-GFP |
